Data as given in ChEMBL document CHEMBL5543153, “Discovery of a Potent Dual Son of Sevenless 1 (SOS1) and Epidermal Growth Factor Receptor (EGFR) Inhibitor for the Treatment of Prostate Cancer” (J Med Chem, 2024).
Calls of active or inactive are those of the source. The rule behind the calls is not given here.

Assays:
[1] = tested on: K562; test: Antiproliferative activity against human K562 cells assessed as inhibition of cell growth incubated for 72 hrs by MTT assay; type: functional, cell-based
[2] = Antiproliferative activity against human RWPE-1 cells assessed as inhibition of cell growth incubated for 72 hrs by MTT assay; type: toxicity, cell-based
[3] = tested on: NCI-H358; test: Antiproliferative activity against human NCI-H358 cells harboring KRAS G12C mutant assessed as inhibition of cell growth incubated for 72 hrs by MTT assay; type: functional, cell-based; conditions: NCI-H358, 72 h
[4] = molecular target: T1, Son of sevenless homolog 1 (Homo sapiens) (UniProt Q07889); test: Inhibition of SOS1 in human PC-3 cells assessed as downregulation of RAS-GTP expression at 12.5 uM incubated for 15 mins by Western blotting analysis; type: cell-based
T1 sequence (whole entry): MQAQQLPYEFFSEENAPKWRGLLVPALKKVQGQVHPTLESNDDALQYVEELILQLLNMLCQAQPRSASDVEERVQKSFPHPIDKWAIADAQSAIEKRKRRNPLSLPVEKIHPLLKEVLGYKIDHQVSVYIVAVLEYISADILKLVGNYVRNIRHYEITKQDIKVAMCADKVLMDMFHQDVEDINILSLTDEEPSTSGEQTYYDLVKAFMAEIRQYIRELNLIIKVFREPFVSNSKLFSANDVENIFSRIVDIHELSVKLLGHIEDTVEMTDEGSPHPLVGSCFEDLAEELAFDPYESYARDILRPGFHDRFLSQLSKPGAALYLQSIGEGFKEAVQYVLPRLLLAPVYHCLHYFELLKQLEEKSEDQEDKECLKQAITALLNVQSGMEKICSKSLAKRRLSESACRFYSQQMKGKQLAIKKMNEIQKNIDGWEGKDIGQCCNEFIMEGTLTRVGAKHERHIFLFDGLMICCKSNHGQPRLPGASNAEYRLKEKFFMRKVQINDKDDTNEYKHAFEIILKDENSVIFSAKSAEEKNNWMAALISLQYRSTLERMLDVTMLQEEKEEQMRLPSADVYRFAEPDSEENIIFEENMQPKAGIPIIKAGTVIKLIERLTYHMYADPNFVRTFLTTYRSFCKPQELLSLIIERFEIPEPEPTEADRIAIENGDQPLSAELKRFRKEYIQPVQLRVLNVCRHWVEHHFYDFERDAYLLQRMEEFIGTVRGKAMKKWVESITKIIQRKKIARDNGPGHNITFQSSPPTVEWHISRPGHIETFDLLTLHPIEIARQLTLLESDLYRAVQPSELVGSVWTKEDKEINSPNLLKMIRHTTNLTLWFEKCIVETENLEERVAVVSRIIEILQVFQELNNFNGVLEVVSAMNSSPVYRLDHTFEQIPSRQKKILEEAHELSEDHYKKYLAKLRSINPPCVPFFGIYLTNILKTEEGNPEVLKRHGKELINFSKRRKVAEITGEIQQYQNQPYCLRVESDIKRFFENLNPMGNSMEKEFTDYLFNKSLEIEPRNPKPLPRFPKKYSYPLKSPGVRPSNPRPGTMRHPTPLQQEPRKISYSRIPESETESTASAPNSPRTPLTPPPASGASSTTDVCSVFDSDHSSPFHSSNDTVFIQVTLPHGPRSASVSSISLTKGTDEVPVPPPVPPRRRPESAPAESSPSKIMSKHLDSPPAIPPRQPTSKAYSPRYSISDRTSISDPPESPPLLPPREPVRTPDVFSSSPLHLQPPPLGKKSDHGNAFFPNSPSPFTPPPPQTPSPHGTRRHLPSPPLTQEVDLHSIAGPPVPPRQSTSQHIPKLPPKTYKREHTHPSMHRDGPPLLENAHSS

[5] = molecular target: Epidermal growth factor receptor (Homo sapiens, UniProt P00533); test: Inhibition of EGFR in human PC-3 cells assessed as downregulation of EGF-mediated AKT phosphorylation at 0.5 uM incubated for 15 mins in presence of EGF by Western blotting analysis; type: cell-based
Epidermal growth factor receptor, sequence (P00533 whole entry): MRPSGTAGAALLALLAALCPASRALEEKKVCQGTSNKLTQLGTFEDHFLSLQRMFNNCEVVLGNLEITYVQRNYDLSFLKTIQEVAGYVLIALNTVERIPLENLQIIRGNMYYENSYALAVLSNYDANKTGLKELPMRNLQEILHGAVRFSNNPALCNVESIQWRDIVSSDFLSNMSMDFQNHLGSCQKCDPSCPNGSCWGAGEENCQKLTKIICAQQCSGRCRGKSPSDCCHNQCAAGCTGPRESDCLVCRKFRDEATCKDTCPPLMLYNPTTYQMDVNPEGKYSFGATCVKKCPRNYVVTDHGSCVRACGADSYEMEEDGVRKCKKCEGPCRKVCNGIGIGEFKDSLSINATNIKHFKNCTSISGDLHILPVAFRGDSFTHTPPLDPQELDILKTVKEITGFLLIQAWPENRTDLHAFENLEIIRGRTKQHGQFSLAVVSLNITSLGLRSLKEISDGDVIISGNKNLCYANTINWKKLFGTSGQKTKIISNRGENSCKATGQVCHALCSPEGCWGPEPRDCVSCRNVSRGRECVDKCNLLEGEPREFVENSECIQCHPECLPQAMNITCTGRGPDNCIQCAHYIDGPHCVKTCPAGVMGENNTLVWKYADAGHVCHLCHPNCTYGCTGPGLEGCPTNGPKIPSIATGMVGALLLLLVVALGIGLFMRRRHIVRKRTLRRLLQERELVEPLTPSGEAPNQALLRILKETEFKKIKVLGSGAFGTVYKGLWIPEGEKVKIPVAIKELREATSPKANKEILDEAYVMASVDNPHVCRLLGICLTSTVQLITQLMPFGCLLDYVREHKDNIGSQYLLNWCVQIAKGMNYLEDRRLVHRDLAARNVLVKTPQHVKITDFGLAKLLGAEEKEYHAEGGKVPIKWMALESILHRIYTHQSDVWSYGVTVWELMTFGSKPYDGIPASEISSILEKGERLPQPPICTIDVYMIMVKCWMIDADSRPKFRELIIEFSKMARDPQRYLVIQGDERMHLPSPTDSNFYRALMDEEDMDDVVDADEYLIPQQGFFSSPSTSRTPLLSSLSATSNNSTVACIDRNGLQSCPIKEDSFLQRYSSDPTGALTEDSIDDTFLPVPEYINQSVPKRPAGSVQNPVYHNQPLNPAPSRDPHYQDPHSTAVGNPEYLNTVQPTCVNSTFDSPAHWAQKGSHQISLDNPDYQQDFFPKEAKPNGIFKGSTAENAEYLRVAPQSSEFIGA

[6] = molecular target: T1, Son of sevenless homolog 1 (Homo sapiens); test: Inhibition of SOS1 in human PC-3 cells assessed as downregulation of ERK phosphorylation at 2.5 uM incubated for 15 mins by Western blotting analysis; type: cell-based
[7] = tested on: PC-3; test: Induction of apoptosis in human PC-3 cells assessed as viable cells at 2.5 uM by Annexin V-FITC staining based flow cytometry (reference value: 94.9%); type: functional; conditions: read-out: Activity
[8] = tested on: PC-3; test: Induction of apoptosis in human PC-3 cells assessed as necrotic cells at 12.5 uM by Annexin V-FITC staining based flow cytometry (reference value: 0.48%); type: functional
[9] = tested on: PC-3; test: Induction of apoptosis in human PC-3 cells assessed as upregulation of cleaved caspase-3 expression by Western blotting analysis; type: functional, cell-based
[10] = tested on: PC-3; test: Induction of cell cycle arrest in human PC-3 cells assessed as accumulation of cells at G1 phase at 12.5 uM by PI staining based flow cytometry (reference value: 75.66%); type: functional
[11] = tested on: PC-3; test: Induction of cell cycle arrest in human PC-3 cells assessed as accumulation of cells at S phase at 2.5 uM by PI staining based flow cytometry (reference value: 16.58%); type: functional
[12] = tested on: PC-3; test: Induction of cell cycle arrest in human PC-3 cells assessed as accumulation of cells at S phase at 12.5 uM by PI staining based flow cytometry (reference value: 16.58%); type: functional
[13] = tested on: PC-3; test: Induction of cell cycle arrest in human PC-3 cells assessed as downregulation of CDK4 expression by Western blotting analysis; type: functional, cell-based
[14] = tested on: HUVEC; test: Antiangiogenic activity in HUVEC cells assessed as reduction in tube master junction at 0.5 to 12.5 uM incubated for 8 hrs by matrigel based microscopic analysis; type: functional, cell-based; conditions: Homo sapiens, dose 0.5-12.5 µM
[15] = tested on: HUVEC; test: Antiangiogenic activity in HUVEC cells assessed as reduction in tube length at 0.5 to 12.5 uM incubated for 8 hrs by matrigel based microscopic analysis; type: functional, cell-based; conditions: Homo sapiens, dose 0.5-12.5 µM
[16] = tested on: HUVEC; test: Inhibition of cell migration in HUVEC cells assessed as reduction in migration index measured after 48 hrs by wound healing assay; type: functional, cell-based; conditions: Homo sapiens
[17] = tested on: HUVEC; test: Inhibition of cell migration in HUVEC cells at 0.5 to 12.5 uM measured after 48 hrs by crystal violet staining based transwell invasion assay; type: functional; conditions: Homo sapiens, dose 0.5-12.5 µM
[18] = tested on: PC-3; test: Antitumor activity against human PC-3 cells xenografted in BALB/c mouse assessed as reduction in tumor weight at 20 mg/kg,ip administrated once every 4 days for 24 days; type: functional, organism-based; conditions: time 24.0 day
[19] = tested on: PC-3; test: Antitumor activity against human PC-3 cells xenografted in BALB/c mouse assessed as increase in apoptosis in tumor tissue at ip administrated once every 4 days for 24 days by TUNEL staining based immunohistochemical analysis; type: functional, organism-based; conditions: time 24.0 day
[20] = Toxicity in BALB/c mouse xenografted with human PC-3 cells assessed as change in body weight at 5 mg/kg,ip administrated once every 4 days for 24 days; type: organism-based; conditions: in vivo, 576 h, time 24 day
[21] = Toxicity in BALB/c mouse xenografted with human PC-3 cells assessed as kidney pathological change at 5 mg/kg,ip administrated once every 4 days for 24 days by hematoxylin and eosin staining based analysis; type: organism-based; conditions: in vivo, 576 h, time 24 day
[22] = Toxicity in BALB/c mouse xenografted with human PC-3 cells assessed as change in AST level at 20 mg/kg,ip administrated once every 4 days for 24 days by automatic biochemical analyzer; type: organism-based; conditions: in vivo, 576 h, time 24 day

For `COc1cc2ncnc(N[C@H](C)c3cccc(F)c3)c2cc1OC1CCOCC1`, the Activity [1] was “Active”, the IC50 at 72 h [2] was > 10000 nM and the IC50 [3] was 550 nM. The inhibition [4] was “Active”, the inhibition [5] was “Active” and the inhibition [6] was “Active”. For the same compound, the viability at 2.5 µM [7] was 79.1%, the Activity [8] was 0.15% and the Activity [9] was “Dose-Dependent Effect”. The Activity [10] was 87.38%, the Activity [11] was 5.5% and the Activity [12] was 6.67%. The Activity [13] was “Dose-Dependent Effect”, the Activity [14] was “Active” and the Activity [15] was “Active”. For the same compound, the inhibition [16] was “Dose-Dependent Effect”, the inhibition [17] was “Active” and the Activity [18] was “Active”. The Activity [19] was “Dose-Dependent Effect”, the Activity [20] was “Toxic” and the Activity [21] was “Toxic”. For the same compound, the Activity [22] was “Non-Toxic”.
